According to US20120258998A1, “Fusion genes in gastrointestinal cancer” (priority 2011, published 2012):
Like-named read-outs stand apart in the source and are kept apart here.

Tests used:
Type in all cases: cell-based
SNU16 cells [1] = test: 5-Fluorouracil sensitivity, MTS proliferation assay; conditions: SNU16 cells before and after CD44-SLC1A2 siRNA1 silencing, vs scrambled siRNA
Method: (§1) Gastric cancer cells and primary tissues were lysed with glutamate assay buffer and glutamate concentrations were determined using a Glutamate Assay Kit (BioVision, USA). Briefly, to each cellular lysate, a vendor-provided glutamate Enzyme Mix was added which recognizes glutamate as a specific substrate leading to proportional color development. For cisplatin treatments, cells were seeded into 96 well plates after siRNA transfection. Subsequently, cisplatin or 5-FU at increasing dosages were added (0-1 mM) to respective wells. Cells were subjected to MTS proliferation assays after 48 hours of drug treatment. Each assay was performed in triplicate, and the results were averaged over three independent experiments.

SNU16 cells [2] = test: Cisplatin sensitivity, MTS proliferation assay; conditions: 48 hours of drug treatment, read-out: GI50 (concentration required to cause 50% growth inhibition)
Method: as §1

AGS cells = test: Cell proliferation assay, AGS fusion negative cells
Method: Gastric cancer cells were transfected with either specific siRNAs targeted to the CD44-SLC1A2 fusion site (100 nM, custom siRNA siGENOME with SMART selection, Dharmacon) or negative control scrambled siRNAs using siPORT™ NeoFX™ transfection reagent (Applied Biosystem) in Optimem Medium (Invitrogen) following the manufacturer's protocol. After 24, 48, and 72 hours siRNA treatment, cells were subjected for downstream analysis. For overexpression studies, the full length coding regions of CD44-SLC1A2 cDNA were inserted into the pEGFP-N1 vector. Control vectors or fusion-GFP vectors were introduced into HFE145 cells, and stable transfectants were selected using puromycin for 4 weeks. Cell proliferation assays were performed using a CellTiter-96 Aqueous Nonradioactive Cell Proliferation Assay kit (Promega) following the manufacturer's instructions and the plates were measured by PerkinElmer plate reader. Cell invasion assays were performed using Biocoat™ Matrigel™ invasion chambers with 8 μm pore filter inserts (BD Bioscience). 48 hours after transfection, 5×10^4 cells were transferred to the upper matrigel chamber in 500 μl of serum-free medium and incubated for 24 hours. Invading cells were counted using light microscopy. Each assay was performed in triplicate, and the results were averaged over three independent experiments. […]

SNU16 cells [3] = test: Colony formation assay, SNU16; conditions: vs scrambled siRNA
Method: (§2) Gastric cancer cells were transfected with either specific siRNAs targeted to the CD44-SLC1A2 fusion site (100 nM, custom siRNA siGENOME with SMART selection, Dharmacon) or negative control scrambled siRNAs using siPORT™ NeoFX™ transfection reagent (Applied Biosystem) in Optimem Medium (Invitrogen) following the manufacturer's protocol. After 24, 48, and 72 hours siRNA treatment, cells were subjected for downstream analysis. For overexpression studies, the full length coding regions of CD44-SLC1A2 cDNA were inserted into the pEGFP-N1 vector. Control vectors or fusion-GFP vectors were introduced into HFE145 cells, and stable transfectants were selected using puromycin for 4 weeks.
Base layers of 0.5% Gum Agar in 1× McCoy's 5 A and 10% FBS were poured into 6-well plates and allowed to harden at 4° C. After 48 hours siRNA transfection, 50,000 cells/well were seeded in complete media plus agar mixture at 42° C. and seeded on top of the solidified base layer. Plates were incubated at 37° C. in for 3-4 weeks, during which plates were fed drop-wise with complete media. After 3-4 weeks, plates were photographed using the Kodak GL 200 System (EpiWhite illumination). Each assay was performed in triplicate, and the results were averaged over three independent experiments.

SNU16 cells [4] = test: Matrigel cell invasion assay, SNU16; conditions: vs control
Method: as §2
(§3) Cell proliferation assays were performed using a CellTiter-96 Aqueous Nonradioactive Cell Proliferation Assay kit (Promega) following the manufacturer's instructions and the plates were measured by PerkinElmer plate reader. Cell invasion assays were performed using Biocoat™ Matrigel™ invasion chambers with 8 μm pore filter inserts (BD Bioscience). 48 hours after transfection, 5×10^4 cells were transferred to the upper matrigel chamber in 500 μl of serum-free medium and incubated for 24 hours. Invading cells were counted using light microscopy. Each assay was performed in triplicate, and the results were averaged over three independent experiments.

SLC1A2 protein [5] = test: Immunofluorescence staining with SLC1A2 antibodies; conditions: SNU16 cells, control vs fusion silenced
Method: as §2
Cells were fixed with 3.7% formaldehyde followed by permeabilisation using 0.1% Triton X-100. After 3× washes with 1×PBS, cells were blocked with 1% BSA. Subsequently, cells were incubated with primary SLC1A2 antibodies (Cell Signaling Technology) for 2 hours followed by 2 hours secondary antibody (Sigma) incubation. Images were taken using a Nikon Eclipse TE2000-U microscope.

[6] = test system: wild-type CD44 and SLC1A2; test: RT-PCR of wild-type CD44 and SLC1A2 expression after fusion-specific siRNA treatment; conditions: SNU16 cells
Method: (§4) Gastric cancer RNAs were reverse transcribed by SuperScript II reverse transcriptase enzyme using oligo-dT (T18) primers (Invitrogen). To detect CD44-SLC1A2, RT-PCR was performed using forward primers to CD44 exon 1 (5′-[…]-3′ (SEQ ID NO: 3)) and reverse primers to either SLC1A2 exon 3 (5′-[…]-3′ (SEQ ID NO: 4)); exon4 (5′-[…]-3′) (SEQ ID NO: 5); exons (5′-[…]-3′ (SEQ ID NO: 6)) or exon 6 (5′[…]-3′ (SEQ ID NO: 7)). Products were resolved by gel electrophoresis and bands of interest excised and cloned for subsequent analysis. To evaluate wild-type CD44 and SLC1A2 expression independently of CD44-SLC1A2, we used CD44 primers targeting exons 3, 4, 5; and SLC1A2 primers targeting exon 1. CD44-SLC1A2 RT-PCR involving clinical specimens (FIG. 1) was performed in an unselected cohort of gastric cancer patients. Reactions were repeated a minimum of three independent times.
(§5) Gastric cancer cells were transfected with either specific siRNAs targeted to the CD44-SLC1A2 fusion site (100 nM, custom siRNA siGENOME with SMART selection, Dharmacon) or negative control scrambled siRNAs using siPORT™ NeoFX™ transfection reagent (Applied Biosystem) in Optimem Medium (Invitrogen) following the manufacturer's protocol. After 24, 48, and 72 hours siRNA treatment, cells were subjected for downstream analysis. […]

CD44-SLC1A2 fusion gene = test: RT-PCR of CD44-SLC1A2 expression after fusion-specific siRNA treatment; conditions: SNU16 cells, siRNA 100 nM, vs scrambled siRNA
Method: as §4, §5

SNU16 cells [7] = test: Cell proliferation assay, SNU16; conditions: vs scrambled/control siRNA
Method: as §2, §3

SLC1A2 protein [8] = test: Western blotting with anti-SLC1A2 antibodies, SNU16 membrane fraction; conditions: after fusion-specific siRNA
Method: Cells were harvested in lysis buffer (10 mM Tris.Cl pH 7.5, 150 mM NaCl, 1% Triton X-114) for 1 hour at […], and centrifuged at 800 g. Supernatants were incubated at 30° C. for 5-10 min and further centrifuged at RT, 300 g. Western blotting was performed on membrane fractions using the following antibodies and dilutions: 1:500 SLC1A2/EAAT2 (Cell Signaling Technologies), 1:2000 α-tubulin (Cell Signaling Technologies). Experiments were repeated a minimum of three independent times.
as §2

For `O=c1[nH]cc(F)c(=O)[nH]1` [5-fluorouracil], the “5-Fluorouracil sensitivity, control vs CD44-SLC1A2 silenced cells” value (SNU16 cells [1]) was “no differences between control and silenced cells were observed” and the “5-Fluorouracil sensitivity, control vs CD44-SLC1A2 silenced cells” value (SNU16 cells [1]; listed as 5-Fluorouracil) was “no significant change in sensitivity to 5-Fluorouracil”.

For `N.N.[Cl][Pt][Cl]` [cisplatin], the GI50 (SNU16 cells [2]; SNU16 cells after CD44-SLC1A2 siRNA treatment) was 3.96 µM and the GI50 (SNU16 cells [2]; control SNU16 cells) was 11.8 µM.

For “siRNA1: siRNA targeting the CD44-SLC1A2 fusion site, 5′-CGCAGAUCGUGCCAACAAUUU-3′ (SEQ ID NO: 27) (chemistry not given here)”, the “proliferation of AGS cells after fusion-specific siRNA” value (AGS cells) was “proliferation of AGS cells is not affected”.

“siRNA2: second siRNA targeting the CD44-SLC1A2 fusion site, 5′-GCACAUCGUGCCAACAAUAUU-3′ (SEQ ID NO: 28) (chemistry not given here)” was tested, and the “colony formation (anchorage-independent growth)” value (SNU16 cells [3]) was “reduction in numbers of colonies formed”, the cell invasion rate (SNU16 cells [4]) was “significant reduction of invasion rate” and the “membranous expression of SLC1A2 (immunofluorescence)” value (SLC1A2 protein [5]) was “significantly reduced”. The “proliferation of AGS cells after fusion-specific siRNA” value (AGS cells) was “proliferation of AGS cells is not affected”, the “independent (regular) CD44 and SLC1A2 expression” value [6] was “without impairing regular CD44 and SLC1A2 expression” and the CD44-SLC1A2 expression (CD44-SLC1A2 fusion gene) was “Reduction of CD44-SLC1A2 expression”. For the same molecule, the proliferation rate (SNU16 cells [7]) was “significant decrease in proliferation rate” and the “SLC1A2 protein expression (Western blotting)” value (SLC1A2 protein [8]) was “knockdown of SLC1A2 protein expression”.
